Data reported in patent EP2359816B1, “Aripiprazole formulations” (Arven Ilac Sanayi ve Ticaret A.S., priority 2010, dated 2011).

Experiment: physchem
Assay type: physicochemical
Description: The following results were obtained in our solubility study of aripiprazole monohydrate.

For `O=C1CCc2ccc(OCCCCN3CCN(c4cccc(Cl)c4Cl)CC3)cc2N1` [aripiprazole monohydrate, 7-[4-[4-(2,3-dichlorophenyl)-1-piperazinyl]butoxy]-3,4-dihydrocarbostyril], the dissolved (pH 1.2 (0.1 N NCl)) was 25 mg per 250 mL, the dissolved (pH 1.2 (USP buffer)) was 9.75 mg per 250 mL and the “Cmax (mg/250 mL) (Aripiprazole)” value (pH 4.5) was 8.25 mg/250 mL. The dissolved (pH 4.5) was 8.25 mg per 250 mL, the solubility (pH 4.5, aqueous buffer, Maximum Solubility (Cmax mg/mL)) was 33 µg/mL and the “Cmax (mg/250 mL) (Aripiprazole)” value (pH 6.8) was 0 mg/250 mL. For the same compound, the “Maximum Solubility (Cmax mg/mL)” value (pH 6.8) was 0 mg/mL and the dissolved (pH 6.8) was “not dissolved”.
